Counter-ions that a name gives are not always drawn. Like-named read-outs stand apart in the source and are kept apart here.
How the values were obtained:
IP-3 receptor = target: T1, IP-3 receptor (Rattus norvegicus, UniProt P29994); assay: IP-3 receptor antagonistic effect, rat cerebellum membrane preparations (Model 5); assay type: binding; conditions: for IC50 Average ± SEM (n) / IC50: inhibition of IP-3 binding
T1 construct: rat cerebellum membrane preparations; from tissue; host or cells: rat cerebellum (microsomal membrane preparation)
Description: The sulfated oligosaccharides of the present invention, depending on their chemical structure, inhibit the binding of inositol-1,4,5-trisphophate […] to its receptor in microsomal membrane preparations. As IP-3 is a messenger molecule playing distinguished role in the activation of different cells, interfering with this function can explain the anti-asthmatic effect of these sulfated oligosaccharides.
The IP-3 antagonist effect of the sulfated oligosaccharides was determined using rat cerebellum membrane preparations according to Worley et al. (JBC 262, 12132, 1987).

Brown Norway (BN) rats = assay: Tracheal contraction to acetylcholine ex vivo after antigen challenge of ovalbumin-sensitized BN rats (Model 1); assay type: in vivo, rat; conditions: for MAX: contraction at maximal Ach concentration relative to control (mean ± SEM): placebo 220 ± 30, control 100 ± 0; for ED50: log M acetylcholine (Ach), causing 50% contraction relative to control (mean ± SEM): trachea 48 h post challenge, placebo 6.10 ± 0.30, control 5.16 ± 0.08
Description: Examination of the effect of locally administered sulfated oligosaccharides on airways' hyper-responsiveness ex vivo.
Brown Norway (BN) rats were actively sensitized to ovalbumin (OA) by a subcutaneous injection of 0.5 ml of OA/Al(OH)3 gel mixture (2 mg OA+10 g Al(OH)3/100 ml saline) on day 1 with subsequent subcutaneous injections (10 mg OA+10 g Al(OH)3/100 ml saline) given on days 14 and 21. On day 28, animals received the compound of formula (IIA) intratracheally (0.01 or 1.0 mg/kg dose) 2 hours before antigen challenge. Antigen challenge was performed by inhalation of nebulised ovalbumin (1% antigen solution administered in a TSE inhalation system for 1 hour). Animals were sacrificed 48 hours post antigen challenge wherein the tracheas were removed to an organ bath. Dissected tracheas were allowed to equilibrate for 30 minutes before measuring tracheal spasmogenic response curves to acetylcholine (Ach).
As shown in Table 1 ovalbumin challenge of sensitized animals in this model caused a significant tracheal hyper-reactivity to acetylcholine, when the response to the spasmogenic agent was determined 48 h after antigen challenge.

BN rats [1] = assay: Allergen stimulated mucus production of airways epithelial cells, PAS(+) cell count (Model 2); assay type: in vivo, rat; conditions: for number of PAS(+) cells as percent of total number of cells (average ± SEM): lungs 48 h after challenge, challenge 27.6 ± 3.5, control 2.9 ± 0.9
Description: Sensitized BN rats were treated intratracheally with 0.01 or 1.0 mg/kg dose of compound of formula (IIA), two hours before antigenic challenge, using a similar protocol described in Model 1. Lungs were collected 48 hours after challenge and were fixed in 8% phophospate buffered formaldehyde. Samples were then processed for histochemistry routinely. 5 μm thick sections were stained with periodic-acid-Schiff (PAS) reagents and were counterstained with haematoxylin-eosine. On the sections each epithelial cells of the airways were counted in the whole preparation at a magnification of 400×. The number of PAS(+) [mucus producing] epithelial cells was expressed as the ratio of the […] of epithelial cells.
As it is shown in Table 2, allergen challenge stimulates the mucus production of airways epithelial cells (control vs. challenge).

BN rats [2] = assay: Eosinophilia in bronchoalveolar lavage fluid (Model 4); assay type: in vivo, rat; conditions: for Eosinophil: eosinophil number/ml BALF (average ± SEM): BALF 48 h after challenge, challenge 1.00 ± 0.16, control 0.35 ± 0.04
Description: Sensitized BN rats were treated intratracheally with 0.01 and 1.0 mg/kg dose of compound of formula (IIA); two hours before antigenic challenge, using a similar protocol described in Model 1. Bronchoalveolar lavage fluids (BALF) were collected 48 hours after challenge and after staining, the number of eosinophils were determined.
As it is shown in Table 4, allergen challenge causes an increase in the number of eosinophils in the bronchioalveolar lavage.

BN rats [3] = assay: Perivascular oedema in asthmatic lung tissue (Model 3); assay type: in vivo, rat; conditions: for Oedema: area of oedema relative to area of vasculature (average ± SEM): lungs 48 h after challenge, challenge 224 ± 17, control 71 ± 7
Description: Sensitized BN rats were treated intratracheally with 0.01 and 1.0 mg/kg dose of compound of formula (IIA), two hours before antigenic challenge, using a similar protocol described in Model 1. Lungs were collected 48 hours after challenge and were fixed in 8% phosphate buffered formaldehyde. Samples were then processed for histochemistry routinely. […] thick sections were stained with periodic-acid-Schiff (PAS) reagents and were counterstained with haematoxylin-eosine. On the sections the areas of the connective tissue around the vasculare were determined and expressed as a ratio of the area of the corresponding blood vessel itself.

[4] = 0.01 mg/kg intratracheally 2 h before antigen challenge
[5] = 1.0 mg/kg intratracheally 2 h before antigen challenge
[6] = 0.01 mg/kg intratracheally 2 h before challenge
[7] = 1.0 mg/kg intratracheally 2 h before challenge
[8] = higher dose (1.0 mg/kg intratracheally)

T1 sequence (P29994 whole entry): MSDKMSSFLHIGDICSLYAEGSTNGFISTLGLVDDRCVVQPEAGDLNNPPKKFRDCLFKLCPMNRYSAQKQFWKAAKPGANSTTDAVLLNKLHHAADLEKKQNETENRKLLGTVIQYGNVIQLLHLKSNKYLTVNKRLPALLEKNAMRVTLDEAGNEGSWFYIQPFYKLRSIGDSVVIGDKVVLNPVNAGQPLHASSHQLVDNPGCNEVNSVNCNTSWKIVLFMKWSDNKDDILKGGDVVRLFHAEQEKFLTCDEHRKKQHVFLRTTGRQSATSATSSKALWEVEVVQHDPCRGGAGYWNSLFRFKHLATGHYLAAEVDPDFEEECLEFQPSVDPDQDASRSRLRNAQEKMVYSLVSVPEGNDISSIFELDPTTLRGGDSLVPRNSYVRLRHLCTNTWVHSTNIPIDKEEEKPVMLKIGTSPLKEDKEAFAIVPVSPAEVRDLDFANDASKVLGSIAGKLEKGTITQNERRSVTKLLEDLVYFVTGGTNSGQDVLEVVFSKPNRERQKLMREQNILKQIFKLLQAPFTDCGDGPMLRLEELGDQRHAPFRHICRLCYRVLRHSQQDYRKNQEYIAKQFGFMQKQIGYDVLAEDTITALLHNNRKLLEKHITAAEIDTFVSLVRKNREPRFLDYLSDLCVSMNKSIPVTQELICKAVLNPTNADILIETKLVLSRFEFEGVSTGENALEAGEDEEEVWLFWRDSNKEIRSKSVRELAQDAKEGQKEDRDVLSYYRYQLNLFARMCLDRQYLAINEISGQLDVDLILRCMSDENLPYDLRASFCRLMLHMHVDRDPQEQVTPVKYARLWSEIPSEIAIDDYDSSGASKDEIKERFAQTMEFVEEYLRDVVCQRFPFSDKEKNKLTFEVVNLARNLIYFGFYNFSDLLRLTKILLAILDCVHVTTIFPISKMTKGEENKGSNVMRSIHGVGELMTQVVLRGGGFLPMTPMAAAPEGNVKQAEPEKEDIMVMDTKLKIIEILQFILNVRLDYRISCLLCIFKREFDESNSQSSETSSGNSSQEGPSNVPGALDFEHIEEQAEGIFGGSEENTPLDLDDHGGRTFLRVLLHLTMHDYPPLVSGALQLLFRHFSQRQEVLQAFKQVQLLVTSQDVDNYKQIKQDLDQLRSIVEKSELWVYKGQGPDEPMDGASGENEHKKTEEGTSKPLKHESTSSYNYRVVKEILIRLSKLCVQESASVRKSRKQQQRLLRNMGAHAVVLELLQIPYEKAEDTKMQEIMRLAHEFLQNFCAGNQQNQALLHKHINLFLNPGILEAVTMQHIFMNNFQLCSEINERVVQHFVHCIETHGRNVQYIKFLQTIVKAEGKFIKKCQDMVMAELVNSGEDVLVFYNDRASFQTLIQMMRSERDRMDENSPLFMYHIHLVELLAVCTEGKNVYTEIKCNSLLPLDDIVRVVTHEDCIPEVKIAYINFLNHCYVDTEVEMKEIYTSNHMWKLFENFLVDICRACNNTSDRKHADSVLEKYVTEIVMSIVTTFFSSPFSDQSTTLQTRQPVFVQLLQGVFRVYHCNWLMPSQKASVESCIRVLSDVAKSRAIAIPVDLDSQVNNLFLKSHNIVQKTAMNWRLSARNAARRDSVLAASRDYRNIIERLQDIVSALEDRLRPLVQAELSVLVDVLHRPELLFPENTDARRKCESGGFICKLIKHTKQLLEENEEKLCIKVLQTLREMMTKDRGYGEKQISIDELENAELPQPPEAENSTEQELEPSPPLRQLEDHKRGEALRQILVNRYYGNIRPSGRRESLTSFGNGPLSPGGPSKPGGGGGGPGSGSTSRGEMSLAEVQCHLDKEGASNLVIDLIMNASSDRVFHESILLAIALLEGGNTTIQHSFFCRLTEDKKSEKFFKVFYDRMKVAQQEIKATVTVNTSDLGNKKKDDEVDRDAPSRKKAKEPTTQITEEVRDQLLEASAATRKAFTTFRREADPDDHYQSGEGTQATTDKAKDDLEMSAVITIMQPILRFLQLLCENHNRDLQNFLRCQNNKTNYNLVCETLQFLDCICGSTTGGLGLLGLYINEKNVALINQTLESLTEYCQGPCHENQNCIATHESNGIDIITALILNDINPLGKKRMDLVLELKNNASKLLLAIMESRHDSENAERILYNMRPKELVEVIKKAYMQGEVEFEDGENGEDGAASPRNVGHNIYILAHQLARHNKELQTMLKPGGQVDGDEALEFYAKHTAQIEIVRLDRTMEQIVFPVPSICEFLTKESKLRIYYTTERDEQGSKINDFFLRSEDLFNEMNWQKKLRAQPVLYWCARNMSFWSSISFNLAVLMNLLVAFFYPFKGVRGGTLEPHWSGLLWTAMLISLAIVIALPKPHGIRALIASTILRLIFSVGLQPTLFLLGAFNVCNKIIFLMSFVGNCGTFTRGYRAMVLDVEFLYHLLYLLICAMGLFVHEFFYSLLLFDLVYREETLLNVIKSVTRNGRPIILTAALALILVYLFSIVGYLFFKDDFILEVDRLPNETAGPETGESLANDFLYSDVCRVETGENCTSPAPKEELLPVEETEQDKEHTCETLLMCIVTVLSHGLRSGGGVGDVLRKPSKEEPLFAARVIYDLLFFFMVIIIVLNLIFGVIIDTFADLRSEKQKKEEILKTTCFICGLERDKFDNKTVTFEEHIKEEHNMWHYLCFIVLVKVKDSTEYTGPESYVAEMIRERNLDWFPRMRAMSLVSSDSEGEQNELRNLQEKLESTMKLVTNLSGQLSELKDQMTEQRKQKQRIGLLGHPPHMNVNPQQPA

Compound | IP-3 antagonist activity (in words) (IP-3 receptor) | IC50 Average ± SEM (n) (IP-3 receptor) | IC50 (IP-3 receptor; read-out: Average IC50) | MAX: contraction at maximal Ach concentration relative to control (mean ± SEM) (Brown Norway (BN) rats; [4]) | ED50: log M acetylcholine (Ach), causing 50% contraction relative to control (mean ± SEM) (Brown Norway (BN) rats; [4]) | MAX: contraction at maximal Ach concentration relative to control (mean ± SEM) (Brown Norway (BN) rats; [5]) | ED50: log M acetylcholine (Ach), causing 50% contraction relative to control (mean ± SEM) (Brown Norway (BN) rats; [5]) | effect on tracheal hyper-reactivity to acetylcholine (in words) (Brown Norway (BN) rats; both applied doses (0.01 and 1.0 mg/kg intratracheally)) | effect on number of PAS(+), mucus producing cells (in words) (BN rats [1]; 0.01 mg/kg intratracheally) | number of PAS(+) cells as percent of total number of cells (average ± SEM) (BN rats [1]; [6]) | number of PAS(+) cells as percent of total number of cells (average ± SEM) (BN rats [1]; [7]) | effect on number of PAS(+), mucus producing cells (in words) (BN rats [1]; [8]) | Eosinophil: eosinophil number/ml BALF (average ± SEM) (BN rats [2]; [6]) | Eosinophil: eosinophil number/ml BALF (average ± SEM) (BN rats [2]; [7]) | effect on number of eosinophils in the bronchioalveolar lavage (in words) (BN rats [2]; higher doses (1.0 mg/kg intratracheally)) | effect on number of eosinophils in the bronchioalveolar lavage (in words) (BN rats [2]; smallest dose (0.01 mg/kg intratracheally)) | Oedema: area of oedema relative to area of vasculature (average ± SEM) (BN rats [3]; [6]) | Oedema: area of oedema relative to area of vasculature (average ± SEM) (BN rats [3]; [7]) | effect on extent of oedema around the vasculature (in words) (BN rats [3]; [8]) | IC50 (IP-3 receptor; read-out: IC50 Average ± SEM (n) (converted))
O=S(=O)([O-])OC[C@H]1O[C@@](COS(=O)(=O)[O-])(O[C@H]2O[C@H](COS(=O)(=O)[O-])[C@@H](OS(=O)(=O)[O-])[C@H](OS(=O)(=O)[O-])[C@H]2OS(=O)(=O)[O-])[C@@H](OS(=O)(=O)[O-])[C@@H]1OS(=O)(=O)[O-].[Na+].[Na+].[Na+].[Na+].[Na+].[Na+].[Na+].[Na+] [IIA, sucrose octasulfate octa sodium salt] | significant IP-3 antagonist activity | 0.26 ± 0.05 (4) μg/ml | 0.208 µM | 167 ± 36 | 4.73 ± 0.50 log M | 131 ± 22 | 4.98 ± 0.30 log M | notably decreased this elevation | notably | 19.2 ± 2.7% | 7.3 ± 1.4% | statistically significantly decreased | 0.89 ± 0.13 eosinophil number/ml BALF | 0.70 ± 0.08 eosinophil number/ml BALF | the decrease become statistically significant | decreases the extent of it | 177 ± 10 | 119 ± 7 | significantly decreased | 
O=S(=O)(O)OC[C@H]1O[C@H](O[C@H]2O[C@H](COS(=O)(=O)O)[C@@H](OS(=O)(=O)O)[C@H](OS(=O)(=O)O)[C@H]2OS(=O)(=O)O)[C@H](OS(=O)(=O)O)[C@@H](OS(=O)(=O)O)[C@@H]1OS(=O)(=O)O [IIB, trehalose octasulfate octa potassium salt] |  |  | 0.194 µM |  |  |  |  |  |  |  |  |  |  |  |  |  |  |  |  | 0.244 µM
O=S(=O)([O-])OC[C@H]1O[C@H](OC[C@H]2O[C@H](O[C@]3(COS(=O)(=O)[O-])O[C@H](COS(=O)(=O)[O-])[C@@H](OS(=O)(=O)[O-])[C@@H]3OS(=O)(=O)[O-])[C@H](OS(=O)(=O)[O-])[C@@H](OS(=O)(=O)[O-])[C@@H]2OS(=O)(=O)[O-])[C@H](OS(=O)(=O)[O-])[C@@H](OS(=O)(=O)[O-])[C@H]1OS(=O)(=O)[O-].[K+].[K+].[K+].[K+].[K+].[K+].[K+].[K+].[K+].[K+].[K+] [IIC, raffinose undecasulfate undeca potassium salt] | significant IP-3 antagonist activity | 0.43 ± 0.05 (3) μg/ml | 0.238 µM |  |  |  |  |  |  |  |  |  |  |  |  |  |  |  |  | 

— patent publication US20090215717A1, “Sulfated oligosaccharides” (Ivax Drug Research Institute Ltd., priority 2004, published 2009)
